Source: US9012651B2, “TRPV3 modulators” (AbbVie Inc., priority 2011, dated 2015)
pIC50: −log10 of the molar value.

molecular target: human TRPV3 receptors (Homo sapiens (Human), UniProt Q8NET8); test: Calcium flux assay (FLIPR TETRA), inhibition of the 2-APB response; type: cell-based; details: recombinant HEK293 cells stably expressing TRPV3, Calcium-4 dye, 2-APB at its EC80
Protocol: (i) In Vitro Methods-Calcium Flux Assays:
Experiments were conducted using the FLIPR^TETRA®. On the day prior to the experiment, recombinant HEK293 cells that stably express human and mouse TRPV3 were removed from tissue culture flasks and plated in growth medium at 20,000 cells/well into black-walled clear-bottom 384-well Biocoat™ poly-D-lysine assay plates (BD Biosciences, Bedford, Mass.) using a Multidrop® dispenser (ThermoScientific, Waltham, Mass.). […] Cells were incubated for 90-120 minutes in the dark. Compounds were dissolved in DMSO to prepare a 10 mM stock solution. The intensity of the fluorescence was captured and digitally transferred to an interfaced PC. The peak increase in fluorescence over baseline (relative fluorescence units) was calculated and expressed as the percentage of the maximal 2-APB (2-aminoethoxyldiphenyl borate) response (in the absence of compound).

Chain of human TRPV3 receptors (Q8NET8 whole entry): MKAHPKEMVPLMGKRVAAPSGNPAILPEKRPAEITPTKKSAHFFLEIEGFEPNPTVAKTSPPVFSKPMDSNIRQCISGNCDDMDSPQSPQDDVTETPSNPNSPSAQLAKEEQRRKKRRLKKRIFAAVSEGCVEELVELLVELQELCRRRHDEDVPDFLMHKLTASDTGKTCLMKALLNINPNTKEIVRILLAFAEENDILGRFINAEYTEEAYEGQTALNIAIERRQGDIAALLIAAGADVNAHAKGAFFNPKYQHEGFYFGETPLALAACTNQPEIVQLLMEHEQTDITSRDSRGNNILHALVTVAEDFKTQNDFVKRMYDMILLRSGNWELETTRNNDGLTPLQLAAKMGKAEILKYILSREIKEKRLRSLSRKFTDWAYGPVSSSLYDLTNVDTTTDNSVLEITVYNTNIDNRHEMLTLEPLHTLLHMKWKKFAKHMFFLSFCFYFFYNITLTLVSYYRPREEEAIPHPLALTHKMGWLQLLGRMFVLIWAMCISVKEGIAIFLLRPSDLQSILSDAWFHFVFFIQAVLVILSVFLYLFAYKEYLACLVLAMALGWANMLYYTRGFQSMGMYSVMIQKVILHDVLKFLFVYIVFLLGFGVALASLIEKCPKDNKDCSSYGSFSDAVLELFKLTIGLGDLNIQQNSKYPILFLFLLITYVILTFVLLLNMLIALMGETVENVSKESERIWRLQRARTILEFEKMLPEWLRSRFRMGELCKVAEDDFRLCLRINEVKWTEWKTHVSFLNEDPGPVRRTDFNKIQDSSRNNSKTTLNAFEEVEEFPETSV

| SMILES | pIC50 |
| --- | --- |
| COCC(CO)NCc1ccnc(-c2ccc(C(F)(F)F)cn2)n1 (stereo not shown) [Example 195, 3-methoxy-2-[({2-[5-(trifluoromethyl)pyridin-2-yl]pyrimidin-4-yl}methyl)amino]propan-1-ol] | < 4.70 |
| CC(C)[C@H](CO)NCc1nc(-c2ccc(Cl)nc2)ccc1F [Example 38, (2R)-2-{[(6′-chloro-5-fluoro-2,3′-bipyridin-6-yl)methyl]amino}-3-methylbutan-1-ol] | 5.55 |
| OCC1(CNCc2ccnc(-c3ccc(C(F)(F)F)cc3)n2)CCCC1 [Example 158, (1-{[({2-[4-(trifluoromethyl)phenyl]pyrimidin-4-yl}methyl)amino]methyl}cyclopentyl)methanol] | < 4.70 |
| OC[C@H](NCc1nc(-c2ccc(C(F)(F)F)nc2)ccc1F)C1CC1 [Example 75, (2R)-2-cyclopropyl-2-({[5-fluoro-6′-(trifluoromethyl)-2,3′-bipyridin-6-yl]methyl}amino)ethanol] | 5.52 |
| CC(C)(CO)NCc1ccnc(-c2ccc(C(F)(F)F)cc2)n1 [Example 136, 2-methyl-2-[({2-[4-(trifluoromethyl)phenyl]pyrimidin-4-yl}methyl)amino]propan-1-ol] | < 4.70 |
| O[C@@H]1CCCC[C@@H]1CNCc1ccnc(-c2ccc(C(F)(F)F)cc2)n1 [Example 166, (1R,2R)-2-{[({2-[4-(trifluoromethyl)phenyl]pyrimidin-4-yl}methyl)amino]methyl}cyclohexanol] | < 4.70 |
| CC(C)[C@H](CO)NCc1cccc(-c2ccccc2)n1 [Example 225, (2R)-3-methyl-2-{[(6-phenylpyridin-2-yl)methyl]amino}butan-1-ol] | 5.53 |
| O[C@@H]1CCCC[C@@H]1NCc1ccnc(-c2ccc(C(F)(F)F)cc2)n1 [Example 172, (1R,2S)-2-[({2-[4-(trifluoromethyl)phenyl]pyrimidin-4-yl}methyl)amino]cyclohexanol] | 5.31 |
| CC(C)[C@H](CO)NCc1ccnc(-c2ccc(C(F)(F)F)cc2)n1 [Example 91, (2R)-3-methyl-2-[({2-[4-(trifluoromethyl)phenyl]pyrimidin-4-yl}methyl)amino]butan-1-ol] | < 4.70 |
| CC[C@H](C)[C@@H](CO)NCc1cccc(-c2ccc(C(F)(F)F)cc2)n1 [Example 2, (2S,3S)-3-methyl-2-[({6-[4-(trifluoromethyl)phenyl]pyridin-2-yl}methyl)amino]pentan-1-ol] | 5.42 |
| OC(CNCc1ccnc(-c2ccc(C(F)(F)F)cc2)n1)C(F)(F)F (stereo not shown) [Example 179, 1,1,1-trifluoro-3-[({2-[4-(trifluoromethyl)phenyl]pyrimidin-4-yl}methyl)amino]propan-2-ol] | < 4.70 |
| CC(C)[C@@H](NCc1nc(-c2ccc(C(F)(F)F)cc2)ccc1F)C(N)=O [Example 116, (R)-2-((3-fluoro-6-(4-(trifluoromethyl)phenyl)pyridin-2-yl)methylamino)-3-methylbutanamide] | < 4.70 |
| C[C@@H](O)[C@@H](CO)NCc1nc(-c2ccc(C(F)(F)F)nc2)ccc1F [Example 121, (2R,3R)-2-({[5-fluoro-6′-(trifluoromethyl)-2,3′-bipyridin-6-yl]methyl}amino)butane-1,3-diol] | 5.21 |
| C[C@@H](O)[C@@H](CO)NCc1ccnc(-c2ccc(C(F)(F)F)cc2)n1 [Example 150, (2R,3R)-2-[({2-[4-(trifluoromethyl)phenyl]pyrimidin-4-yl}methyl)amino]butane-1,3-diol] | 5.42 |
| C[C@@H](O)[C@H](NCc1nc(-c2ccc(C(F)(F)F)nc2)ccc1F)C(N)=O [Example 120, (2S,3R)-2-((5-fluoro-6′-(trifluoromethyl)-2,3′-bipyridin-6-yl)methylamino)-3-hydroxybutanamide] | < 4.70 |
| CC[C@H](CO)NCc1nc(-c2ccc(C(F)(F)F)nc2)ccc1F [Example 78, (2R)-2-({[5-fluoro-6′-(trifluoromethyl)-2,3′-bipyridin-6-yl]methyl}amino)butan-1-ol] | 4.99 |
| C[C@H](O)CNCc1ccnc(-c2ccc(C(F)(F)F)cc2)n1 [Example 180, (2S)-1-[({2-[4-(trifluoromethyl)phenyl]pyrimidin-4-yl}methyl)amino]propan-2-ol] | < 4.70 |

Compounds with a higher pIC50, results first:

| pIC50 | SMILES |
| --- | --- |
| 5.66 | CC(C)[C@H](CO)NCc1nc(-c2ccnc(C(F)(F)F)c2)ccc1F [Example 31, (2R)-2-({[5-fluoro-2′-(trifluoromethyl)-2,4′-bipyridin-6-yl]methyl}amino)-3-methylbutan-1-ol] |
| 5.69 | CC1CCN(C(=O)c2cccc(-c3ccc(F)c(CN[C@@H](CO)C(C)C)n3)c2)CC1 [Example 46, {3-[5-fluoro-6-({[(2R)-1-hydroxy-3-methylbutan-2-yl]amino}methyl)pyridin-2-yl]phenyl}(4-methylpiperidin-1-yl)methanone] |
| 5.77 | CC(C)[C@H](CO)NCc1nc(-c2cccc(S(=O)(=O)N(C)C)c2)ccc1F [Example 39, 3-[5-fluoro-6-({[(2R)-1-hydroxy-3-methylbutan-2-yl]amino}methyl)pyridin-2-yl]-N,N-dimethylbenzenesulfonamide] |
| 5.95 | COc1ccc(C#Cc2ccc(F)c(CN[C@@H](CO)C(C)C)n2)cc1 [Example 235, (2R)-2-[({3-fluoro-6-[(4-methoxyphenyl)ethynyl]pyridin-2-yl}methyl)amino]-3-methylbutan-1-ol] |
| 6.02 | CC(C)[C@H](CO)NCc1nc(-c2ccc(F)cn2)ccc1F [Example 36, (2R)-2-{[(5,5′-difluoro-2,2′-bipyridin-6-yl)methyl]amino}-3-methylbutan-1-ol] |
| 6.38 | CC(C)[C@H](CO)NCc1nc(N2CCC(C(F)(F)F)C2)ccc1F (stereo partly drawn) [Example 67, (2R)-2-[({3-fluoro-6-[3-(trifluoromethyl)pyrrolidin-1-yl]pyridin-2-yl}methyl)amino]-3-methylbutan-1-ol] |
| 6.41 | CC(C)[C@H](CO)NCc1nc(-c2ccc(F)c(C(F)(F)F)c2)ccc1F [Example 281, (2R)-2-[({3-fluoro-6-[4-fluoro-3-(trifluoromethyl)phenyl]pyridin-2-yl}methyl)amino]-3-methylbutan-1-ol] |
| 6.49 | CC(C)[C@H](CO)NCc1nc(N2CCc3ccc(F)cc3C2)ccc1F [Example 98, (2R)-2-({[3-fluoro-6-(7-fluoro-3,4-dihydroisoquinolin-2(1H)-yl)pyridin-2-yl]methyl}amino)-3-methylbutan-1-ol] |
| 6.49 | CC(C)[C@H](CO)NCc1nc(-c2ccc(F)cc2)ccc1F [Example 27, (2R)-2-({[3-fluoro-6-(4-fluorophenyl)pyridin-2-yl]methyl}amino)-3-methylbutan-1-ol] |
| 6.57 | CC(C)[C@H](CO)NCc1nc(N2Cc3ccc(F)cc3C2)ccc1F [Example 93, (2R)-2-({[3-fluoro-6-(5-fluoro-1,3-dihydro-2H-isoindol-2-yl)pyridin-2-yl]methyl}amino)-3-methylbutan-1-ol] |
| 6.59 | CC(C)[C@H](CO)NCc1nc(N2CCc3ccc(C(F)(F)F)cc3C2)ccc1F [Example 103, (2R)-2-[({3-fluoro-6-[7-(trifluoromethyl)-3,4-dihydroisoquinolin-2(1H)-yl]-pyridin-2-yl}methyl)amino]-3-methylbutan-1-ol] |
| 6.64 | CC(C)[C@H](CO)NCc1nc(-c2ccc3sccc3c2)ccc1F [Example 255, (2R)-2-({[6-(1-benzothiophen-5-yl)-3-fluoropyridin-2-yl]methyl}amino)-3-methylbutan-1-ol] |
| 6.64 | CC(C)[C@H](CO)NCc1cccc(C#Cc2ccc(S(F)(F)(F)(F)F)cc2)n1 [Example 263, (2R)-3-methyl-2-{[(6-{[4-(pentafluoro-λ^6-sulfanyl)phenyl]ethynyl}pyridin-2-yl)methyl]amino}butan-1-ol] |
| 6.70 | CC(C)[C@H](CO)NCc1nc(-c2ccc(C(F)(F)F)cc2)ccc1F [Example 17, (2R)-2-[({3-fluoro-6-[4-(trifluoromethyl)phenyl]pyridin-2-yl}methyl)amino]-3-methylbutan-1-ol] |
| 6.77 | CC(C)[C@H](CO)NCc1nc(C#CCCC2CCCCC2)ccc1F [Example 288, (2R)-2-({[6-(4-cyclohexylbut-1-yn-1-yl)-3-fluoropyridin-2-yl]methyl}amino)-3-methylbutan-1-ol] |
| 6.80 | CC(C)[C@H](CO)NCc1nc(-c2ccc(F)c(F)c2F)ccc1F [Example 245, (2R)-2-({[3-fluoro-6-(2,3,4-trifluorophenyl)pyridin-2-yl]methyl}amino)-3-methylbutan-1-ol] |
| 6.80 | CC(C)[C@H](CO)NCc1nc(-c2cc(F)c(F)cc2F)ccc1F [Example 246, (2R)-2-({[3-fluoro-6-(2,4,5-trifluorophenyl)pyridin-2-yl]methyl}amino)-3-methylbutan-1-ol] |
| 6.92 | CC(C)[C@H](CO)NCc1nc(N2Cc3cccc(F)c3C2)ccc1F [Example 94, (2R)-2-({[3-fluoro-6-(4-fluoro-1,3-dihydro-2H-isoindol-2-yl)pyridin-2-yl]methyl}amino)-3-methylbutan-1-ol] |
| 6.92 | CC(C)[C@H](CO)NCc1nc(-c2ccc(F)c(Cl)c2)ccc1F [Example 294, (2R)-2-({[6-(3-chloro-4-fluorophenyl)-3-fluoropyridin-2-yl]methyl}amino)-3-methylbutan-1-ol] |
| 6.96 | CC(C)[C@H](CO)NCc1nc(N2CCc3c(F)cccc3C2)ccc1F [Example 97, (2R)-2-({[3-fluoro-6-(5-fluoro-3,4-dihydroisoquinolin-2(1H)-yl)pyridin-2-yl]methyl}amino)-3-methylbutan-1-ol] |
